For series [1] the following is noted: dose of 1 g/kg; cited from earlier work.
The subject of a further series is DENV-2 virus. In words: Pilot antiviral assay, DENV-Luc replication in A549 cells (FIG. 2). The series is classed as cell-based, dengue serotype 2 (DENV-2) strain 16681. How it is done: We therefore focused our efforts on evaluating CPU in combination with GSK983. Using an infectious clone of dengue serotype 2 (DENV-2) strain 16681 engineered to express a luciferase reporter, the efficacy and cytotoxicity of combinations of GSK983 and CPU were assessed in infected or uninfected cultures of the A549 lung carcinoma cell line (FIG. 2). […] However, a combination of 0.2 μM GSK and 250 μM CPU inhibited ca. 50% of virus replication.
DENV-Luc reporter virus generation: The design of the pDENV-Luc infectious clone derived from dengue serotype 2 (DENV-2) strain 16681 was described in detail by Marceau et al (Marceau et al., 2016). The plasmid was linearized with Xbal and in vitro transcribed into the genomic RNA of DENV-Luc virus using the T7 Megascript Kit (Ambion) in the presence of m7G(5′)ppp(5′)G RNA Cap Structure Analog (NEB). 5 μg DENV-Luc RNA was electroporated into 2×10^6 Vero cells. The transfected cells were resuspended with Dulbecco's modified Eagle's medium (DMEM; Invitrogen) with 10% FBS and 100 U/ml penicillin-streptomycin and transferred into a T-175 flask incubated at 37° C. with 5% CO2. Supernatants were collected and replenished with fresh medium every 24 h from day 17 to 24 post-transfection, pooled together, clarified by centrifugation and stored in aliquots at −80° C. The amount of infectious DENV-Luc virus in the stock was titrated using the TCID50 assay and calculated by the Spearman & Kärber algorithm as described previously (Hierholzer and Killington, 1996).
Pilot Antiviral Assays (for FIG. 2): A549 cells were plated overnight at 20,000 cells/well in 24-well plates in complete DMEM and incubated for 24 h at 37° C. Cell were then treated with pyrimidine de novo synthesis and/or salvage inhibitors in DMEM supplemented with 20 μM uridine. Four hours after drug addition, cells were infected with DENV-2 virus at a MOI=0.01. After 48 h, DENV-Luc replication was monitored by the production of Renilla luciferase, which was measured using the Renilla-Glo Luciferase Assay System (Promega) according to the specifications of the manufacturer. For the accompanying cell viability assay, A549 cells were seeded into 24-well plates at a density of 20,000 cells/well incubated for 24 h at 37° C. Cell were then treated with pyrimidine de novo synthesis and/or salvage inhibitors in DMEM supplemented with 20 μM uridine. Following 48h treatment, cells were harvested, and the density of viable cells was determined by flow cytometry (FSC/SSC) using a BD Accuri C6 Flow Cytometer.

We go through one compound from patent publication US20220280513A1, “ENHANCING THE ANTIVIRAL EFFICACY OF RNA VIRUS INHIBITION BY COMBINATION WITH MODULATORS OF PYRIMIDINE METABOLISM” (The Board of Trustees of the Leland Stanford Junior …, priority 2019, published 2022).

`O=c1ccn([C@@H]2C=C(CO)[C@@H](O)[C@H]2O)c(=O)[nH]1` [CPU, 1-((1R,4R,5S)-4,5-dihydroxy-3-(hydroxymethyl)cyclopent-2-en-1-yl)pyrimidine-2,4(1H,3H)-dione]: the toxicity in mice entry in series [1] is on record as “does not show appreciable toxicity”. For the same compound, in the series on DENV-2 virus (CPU combined with GSK983, exogenous uridine), the “decrease of DENV-2 titer, synergy” value is “synergized with GSK983”. Moreover, in the series with DENV-2 virus (CPU dose of 1 mM in combination with GSK, 20 μM exogenous uridine), the virus replication result is “suppressed almost completely”. In addition, the “inhibition of replication of DENV-2 virus, single agent” value with DENV-2 virus (alone, 20 μM exogenous uridine) is on record as “neither GSK nor CPU alone inhibited replication”. In the series with DENV-2 virus (combination of 0.2 μM GSK and 250 μM CPU, 20 μM exogenous uridine), the “inhibition of virus replication” value is on record as “ca. 50%”.
